Measurements taken from patent US20100305121A1, “NOVEL ANTAGONISTS OF THE HUMAN FATTY ACID SYNTHASE THIOESTERASE” (priority 2006, published 2010).

How the values were obtained:
human FAS TE [1] = molecular target: T1, human FAS TE (Homo sapiens, UniProt P49327); experiment: Kinetic characterization of inhibitors, 4-MUH turnover by FAS TE; type: biochemical
T1 construct: Expression of the recombinant thioesterase domain of FAS using pTrcHis-TOPO vector (Invitrogen) was as described in Kridel et al. (2004); His tag (from pTrcHis-TOPO vector)

FAS holoenzyme [2] = molecular target: T2, FAS holoenzyme (Homo sapiens, UniProt P49327); experiment: Activity-based probe FP-BODIPY labeling of FAS TE active site in MDA-MB-435 cell lysates; type: binding; conditions: MB-MDA-435 cell lysates, 50 nM probe
T2 construct: Fatty acid synthesis by the FAS holoenzyme in cell lysates was measured by incorporation of; endogenous in cells; host or cells: MDA-MB-435 cell lysate

FAS holoenzyme [3] = molecular target: T2, FAS holoenzyme; experiment: Fatty acid synthesis in vitro, [14C] malonyl-CoA incorporation in MDA-MB-435 cell lysates; type: biochemical; conditions: for effect on fatty acid biosynthesis in cell lysates: 6.3 to 50 μM
Cytotoxicity, MTS assay = conditions: human, MDA-MB-435 breast carcinoma cells, Cytotoxicity IC50 (μM), MDA-MB-435 cells
human FAS TE [4] = molecular target: T1, human FAS TE; experiment: Fluorogenic 4-MUH screening assay of recombinant FAS TE (primary and secondary screen); type: biochemical
[5] = system: MDA-MB-435 breast carcinoma cells; experiment: Cytotoxicity, MTS assay; conditions: read-out: Cytotoxicity IC50, MDA-MB-435 cells, 48 hours

T2 sequence (P49327 2-2511 limits assumed): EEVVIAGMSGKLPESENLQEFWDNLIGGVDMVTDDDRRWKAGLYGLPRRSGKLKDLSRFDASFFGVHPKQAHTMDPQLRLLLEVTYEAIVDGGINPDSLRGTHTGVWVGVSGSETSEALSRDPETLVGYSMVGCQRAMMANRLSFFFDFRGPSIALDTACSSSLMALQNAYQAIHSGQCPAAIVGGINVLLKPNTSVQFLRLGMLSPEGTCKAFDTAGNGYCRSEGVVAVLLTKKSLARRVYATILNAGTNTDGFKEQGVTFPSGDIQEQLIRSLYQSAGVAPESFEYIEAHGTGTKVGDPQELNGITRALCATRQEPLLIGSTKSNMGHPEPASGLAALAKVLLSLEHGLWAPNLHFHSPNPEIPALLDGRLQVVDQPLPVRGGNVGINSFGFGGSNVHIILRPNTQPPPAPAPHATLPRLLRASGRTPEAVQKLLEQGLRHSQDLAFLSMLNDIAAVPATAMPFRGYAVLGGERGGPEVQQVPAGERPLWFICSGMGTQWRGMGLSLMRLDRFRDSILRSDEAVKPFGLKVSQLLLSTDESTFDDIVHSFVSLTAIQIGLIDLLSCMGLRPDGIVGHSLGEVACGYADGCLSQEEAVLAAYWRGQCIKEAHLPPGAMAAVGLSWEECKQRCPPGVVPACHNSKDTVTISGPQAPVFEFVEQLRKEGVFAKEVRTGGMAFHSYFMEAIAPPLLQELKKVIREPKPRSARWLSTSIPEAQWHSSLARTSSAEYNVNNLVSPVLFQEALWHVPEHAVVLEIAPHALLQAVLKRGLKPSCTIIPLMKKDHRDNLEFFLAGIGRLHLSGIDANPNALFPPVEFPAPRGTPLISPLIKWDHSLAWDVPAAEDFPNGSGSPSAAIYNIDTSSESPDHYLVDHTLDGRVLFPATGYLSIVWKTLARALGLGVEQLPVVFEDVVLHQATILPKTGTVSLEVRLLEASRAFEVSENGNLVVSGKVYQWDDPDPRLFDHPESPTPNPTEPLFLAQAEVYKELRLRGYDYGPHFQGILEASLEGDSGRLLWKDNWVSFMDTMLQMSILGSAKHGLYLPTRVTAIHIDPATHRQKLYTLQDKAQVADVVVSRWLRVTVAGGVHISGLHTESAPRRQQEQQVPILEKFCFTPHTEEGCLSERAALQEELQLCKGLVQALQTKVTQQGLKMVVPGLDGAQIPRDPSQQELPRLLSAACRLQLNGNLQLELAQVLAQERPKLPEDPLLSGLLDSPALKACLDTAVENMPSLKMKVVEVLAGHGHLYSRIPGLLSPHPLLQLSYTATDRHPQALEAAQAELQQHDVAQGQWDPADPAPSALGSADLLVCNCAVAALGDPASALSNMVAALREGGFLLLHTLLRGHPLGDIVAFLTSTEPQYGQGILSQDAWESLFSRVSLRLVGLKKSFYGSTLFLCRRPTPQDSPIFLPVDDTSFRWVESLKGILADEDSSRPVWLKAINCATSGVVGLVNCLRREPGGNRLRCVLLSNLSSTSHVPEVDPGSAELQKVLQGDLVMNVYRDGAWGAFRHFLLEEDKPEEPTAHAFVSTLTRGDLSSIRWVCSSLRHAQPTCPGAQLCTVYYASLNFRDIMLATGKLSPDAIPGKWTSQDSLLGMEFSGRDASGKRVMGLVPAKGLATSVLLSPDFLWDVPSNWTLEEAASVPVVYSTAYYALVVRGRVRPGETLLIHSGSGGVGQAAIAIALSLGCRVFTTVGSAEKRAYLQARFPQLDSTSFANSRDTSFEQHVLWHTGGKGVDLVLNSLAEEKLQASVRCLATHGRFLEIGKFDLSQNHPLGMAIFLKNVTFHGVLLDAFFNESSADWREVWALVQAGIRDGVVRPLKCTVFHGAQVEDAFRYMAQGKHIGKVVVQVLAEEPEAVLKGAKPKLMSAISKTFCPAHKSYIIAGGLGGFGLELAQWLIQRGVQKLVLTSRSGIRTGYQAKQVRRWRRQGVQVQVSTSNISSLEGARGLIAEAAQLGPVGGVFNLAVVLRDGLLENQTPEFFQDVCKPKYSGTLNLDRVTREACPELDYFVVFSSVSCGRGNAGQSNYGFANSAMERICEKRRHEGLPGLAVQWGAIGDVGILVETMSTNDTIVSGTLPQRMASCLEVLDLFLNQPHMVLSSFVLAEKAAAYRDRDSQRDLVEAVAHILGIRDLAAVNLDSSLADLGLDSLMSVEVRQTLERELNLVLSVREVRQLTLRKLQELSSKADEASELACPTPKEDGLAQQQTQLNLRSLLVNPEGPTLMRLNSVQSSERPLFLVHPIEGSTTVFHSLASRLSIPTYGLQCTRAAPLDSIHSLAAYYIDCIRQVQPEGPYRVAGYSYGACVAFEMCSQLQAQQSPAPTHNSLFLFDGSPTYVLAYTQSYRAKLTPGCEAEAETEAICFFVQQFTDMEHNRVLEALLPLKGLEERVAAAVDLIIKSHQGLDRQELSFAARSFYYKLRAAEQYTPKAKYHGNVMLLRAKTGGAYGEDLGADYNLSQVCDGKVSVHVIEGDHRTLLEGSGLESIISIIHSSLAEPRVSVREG
T1 sequence (P49327 2207-2511 limits assumed): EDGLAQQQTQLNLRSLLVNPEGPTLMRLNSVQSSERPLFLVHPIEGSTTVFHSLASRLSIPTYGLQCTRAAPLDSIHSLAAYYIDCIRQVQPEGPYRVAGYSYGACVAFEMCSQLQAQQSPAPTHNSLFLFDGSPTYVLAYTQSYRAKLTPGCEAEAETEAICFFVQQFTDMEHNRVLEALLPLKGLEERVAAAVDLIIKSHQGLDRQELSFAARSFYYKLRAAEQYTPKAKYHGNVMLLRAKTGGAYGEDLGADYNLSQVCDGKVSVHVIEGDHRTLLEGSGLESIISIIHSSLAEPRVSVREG

CN1C(=O)NC(=O)/C(=C/c2ccc(-c3ccc([N+](=O)[O-])cc3Br)o2)C1=O [RDR102 (2), (Z)-5-((5-(2-bromo-4-nitrophenyl)furan-2-yl)methylene)-1-methylpyrimidine-2,4,6(1H,3H,5H)-trione]
Ki (human FAS TE [1]): 0.1 µM
concentration of complete inhibition of FP-BODIPY binding (FAS holoenzyme [2]): approximately 50 μM
IC50 (FAS holoenzyme [3]): ~20 µM
effect on fatty acid biosynthesis in cell lysates (FAS holoenzyme [3]): completely abrogated fatty acid biosynthesis
IC50 at 48 h (Cytotoxicity, MTS assay): 14.2 µM

COc1ccc(-c2ccc(C=C3C(=O)NC(=S)NC3=O)o2)c([N+](=O)[O-])c1 [RDR924 (3), 5-((5-(4-methoxy-2-nitrophenyl)furan-2-yl)methylene)-2-thioxodihydropyrimidine-4,6(1H,5H)-dione]
concentration of complete inhibition of FP-BODIPY binding (FAS holoenzyme [2]): approximately 50 μM
IC50 (human FAS TE [4]): 4.4 µM

O=C1NC(=O)C(=Cc2ccc(-c3ccccc3C(=O)O)o2)C(=O)N1 [RDR317 (6), 2-(5-((2,4,6-trioxotetrahydropyrimidin-5(6H)-ylidene)methyl)furan-2-yl)benzoic acid]
IC50 (human FAS TE [4]): 29 µM

CCOc1ccc(C/C=C2/C(=O)NC(=O)N(c3ccc(OCC)cc3)C2=O)cc1 [RDR506 (11), (Z)-1-(4-ethoxyphenyl)-5-(2-(4-ethoxyphenyl)ethylidene)pyrimidine-2,4,6(1H,3H,5H)-trione]
IC50 (human FAS TE [4]): 14.5 µM

Cc1cccc(N2C(=O)NC(=O)/C(=C/Nc3ccccc3C)C2=O)c1 [RDR564 (12), (Z)-1-m-tolyl-5-((o-tolylamino)methylene)pyrimidine-2,4,6(1H,3H,5H)-trione]
IC50 (human FAS TE [4]): 105 µM

COc1ccc(N2C(=O)NC(=O)/C(=C/C/C=C/c3ccccc3)C2=O)c(OC)c1 [RDR755 (7), (Z)-1-(2,4-dimethoxyphenyl)-5-((E)-4-phenylbut-3-enylidene)pyrimidine-2,4,6(1H,3H,5H)-trione]
Ki (human FAS TE [1]): 0.12 µM
type of inhibition of FAS TE (double reciprocal plots) (human FAS TE [1]): non-competitive inhibitors
IC50 [5]: 1.61 µM
IC50 at 48 h (Cytotoxicity, MTS assay): 1.6 µM

O=C1NC(=O)N(c2ccccc2)C(=O)/C1=C\C/C=C/c1ccccc1[N+](=O)[O-] [RDR914 (8), (Z)-5-((E)-4-(2-nitrophenyl)but-3-enylidene)-1 - phenylpyrimidine-2,4,6(1H,3H,5H)-trione]
IC50 (human FAS TE [4]): 1.5 µM
IC50 [5]: 9.53 µM
IC50 at 48 h (Cytotoxicity, MTS assay): 9.5 µM

COc1cccc(N2C(=O)NC(=O)/C(=C/C/C=C/c3ccccc3[N+](=O)[O-])C2=O)c1 [RDR203 (9), (Z)-1-(3-methoxyphenyl)-5-((E)-4-(2-nitrophenyl)but-3-enylidene)pyrimidine-2,4,6(1H,3H,5H)-trione]
IC50 (human FAS TE [4]): 2 µM

O=C1NC(=O)C(=Cc2ccc(-c3cc([N+](=O)[O-])ccc3O)o2)C(=O)N1 [RDR256 (5), 5-((5-(2-hydroxy-5-nitrophenyl)furan-2-yl)methylene)pyrimidine-2,4,6(1H,3H,5H)-trione]
IC50 (human FAS TE [4]): 9.2 µM

Cc1ccc(Br)c(-c2ccc(C=C3C(=O)NC(=S)NC3=O)o2)c1 [RDR019 (1), 5-((5-(2-bromo-5-methylphenyl)furan-2-yl)methylene)-2-thioxodihydropyrimidine-4,6(1H,5H)-dionc]
Ki (human FAS TE [1]): 0.11 µM
partial versus pure non-competitive inhibition (Km/Vmax(i) versus [I]) (human FAS TE [1]): partial non-competitive inhibitor
type of inhibition of FAS TE (double reciprocal plots) (human FAS TE [1]): non-competitive inhibitors
IC50 (FAS holoenzyme [3]): ~20 µM
effect on fatty acid biosynthesis in cell lysates (FAS holoenzyme [3]): completely abrogated fatty acid biosynthesis
IC50 at 48 h (Cytotoxicity, MTS assay): 20.6 µM

CN(C)c1ccc(C/C=C2/C(=O)NC(=S)N(c3ccccc3F)C2=O)cc1 [RDR057 (10), (Z)-5-(2-(4-(dimethylamino)phenyl)ethylidene)-1-(2-fluorophenyl)-2-thioxodihydropyrimidine-4,6(1H,5H)-dione]
IC50 (human FAS TE [4]): 4.3 µM

O=C1NC(=S)NC(=O)C1=Cc1ccc(-c2ccc(C(=O)O)cc2)o1 [RDR423 (4), 4-(5-((4,6-dioxo-2-thioxotetrahydropyrimidin-5(6H)-ylidene)methyl)furan-2-yl)benzoic acid]
IC50 (human FAS TE [4]): 5.3 µM
